Experimental data as given in patent publication US20130065969A9, “Odour Compounds” (priority 2009, published 2013).

Legend:
[1] = Odour threshold by GC detection at the sniffing port (panel of 5 persons); conditions: mean of individual thresholds of 5 panelists
Protocol: For each compound the odour threshold value was determined by gas chromatograph (GC) detection. […] Each panelist (panel of 5 persons) smelled blind and pressed a button upon perceiving an odor. If the recorded time matched the retention time, the sample was further diluted. The last quantity detected at the correct retention time was the panelist's individual odor threshold. The final threshold value for a given test compound was obtained as the mean value of the individual threshold levels.
Further information of the technique described hereinabove may be found in N. Neuner-Jehle, F. Etzweiler. ‘Measuring of Odors’, in P. Müller. D. Lamparsky (Eds,). ‘Perfumes. Art, Science and Technology’, Elsevier Appl. Science Publ., London. 1991: pp. 153.

[2] = Vapour pressure by saturated headspace trapping and GC quantification; type: physicochemical; conditions: headspace concentration at constant 25° C., mean of three independent measurements
Protocol: For each compound the vapour pressure was determined via the following procedure: 500 mg of the test compound was added to a headspace container which was then scaled. The container was incubated at constant 25° C. until the compound reached equilibrium between the gas and the liquid phase. An exactly defined but variable volume between 0.5-1.0 L of this saturated headspace was trapped on a micro filter using Porapak Q as sorbent. After filter extraction with 30-100 μl methyl tert.-butyl ether), an aliquot of the extract was analyzed by gas chromatograph (GC). Quantification was performed by the external standard calibration method. The concentration in the original headspace was calculated (in terms of μg/l) from the headspace volume sucked through the micro filter and the aliquot of the filter extract injected into the gas chromatograph. The final headspace concentration value for a given test compound was obtained as the mean value of three independent measurements.
Further information of the technique described hereinabove may be found in the article of F. Etzweiler, E. Senn, N. Neuner-Jehle, Ber. Bunsen-Ges. Phys. Chem. 1984, 88, 578.

| SMILES | Odour Threshold [1] [ng/L] | Vapour Pressure [2] [µg/L] |
| --- | --- | --- |
| C/C(=C\C(C)C)C(C)OC(C)(C)COC(=O)C1CC1 (centres unmarked) [(3″E)-2-(3,5-Dimethylhex-3-en-2-yloxy)-2-methylpropyl cyclopropanecarboxylate, reference compound] | 5.9 | 27.57 |
| CC/C(=C\C(C)C)C(C)OC(C)(C)COC(=O)C1CC1 (centres unmarked) [Example 2, (3″E)-2′-(3″-Ethyl-5″-methylhex-3″-en-2″yloxy)-2′-methylpropyl cyclopropanecarboxylate] | 2.2 | 10.61 |
| CC/C(=C\C(C)C)C(C)OC(C)(C)COC(=O)C1CCC1 (centres unmarked) [Example 4, (3″E)-2′-(3″-Ethyl-5″-methylhex-3″-en-2″-yloxy)-2′-methylpropyl cyclobutanecarboxylate] | – | 4.76 |
